Experiments:
[1] = Maximum tolerated dose study in mice; assay type: in vivo; conditions: IP, 20, 40 and 60 mg/kg daily for 10 days
Description: (§1) Maximum tolerated dose studies and pharmacokinetics for several LSD1 inhibitors were assessed to determine if the compound can be administered to mammals safely at does that are expected to achieve therapeutic effects. In particular, compound X was given to mice IP at 20 mg/kg 40 mg/kg and 60 mg/kg daily for 10 days in a MTD study conducted at Leitat.

[2] = Pharmacokinetics (PK studies); assay type: in vivo, mice; conditions: at the MTD study doses, in words
Description: as §1

[3] = system: hepatitis B virus (HBV) ayw strain; experiment: Anti-HBV assay with HepG2-2.2.15 cells (HBV DNA replication); assay type: cell-based; conditions: for Selectivity Index SI50: HepG2-2.2.15 cells; for EC50: Hepatitis B virus, HepG2 2.2.15, read-out: Antiviral Activity EC50
Description: (§2) Anti-HBV assays were conducted at Southern Research Organization using an HBV DNA replicon with a luciferase reporter.
(§3) Southern Research reports HepG2-2.2.15 is a stable cell line containing the hepatitis B virus (HBV) ayw strain genome. Antiviral compounds blocking any late step of viral replication such as transcription, translation, pregenome encapsidation, reverse transcription, particle assembly and release can be identified and characterized using this cell line. Initially we test whether a compound will reduce the production of secreted HBV from cells utilizing our real time quantitative PCR (TaqMan) HBV DNA assay.

[4] = Cytotoxicity in anti-HBV assay; assay type: cell-based; conditions: human; HepG2-2.2.15 cells
Description: as §2, §3

NC1CC1c1ccc(-c2cccc(O)c2)cc1 (stereo not drawn) [Compound X]
tolerability in MTD study [1]: tolerated with acceptable toxicity | Cmax [2]: expected to result in therapeutic levels | Selectivity Index SI50 [3]: 26.8 | EC50 [3]: 2.24 µM | activity in an HBV DNA replication assay ([3]; in words): low micromolar range | IC50 [4]: 54.8 µM

Nc1ccn([C@@H]2CS[C@H](CO)O2)c(=O)n1 (relative stereo) [Compound 3TC, (2R, cis)-4-amino-1-(2-hydroxymethyl-1,3-oxathiolan-5-yl)-(1H)-pyrimidin-2-one, reference compound]
Selectivity Index SI50 [3]: >100 | EC50 [3]: 0.01 µM | IC50 [4]: 60.4 µM

— patent US9186337B2, “Lysine demethylase inhibitors for diseases and disorders associated with Hepadnaviridae” (Oryzon Genomics S.A., priority 2010, dated 2015)
